Measurements from US20160082016A1, “Use of Clonazepam in Combination with Antibiotic in the Treatment of Bacterially Induced Meningitis” (COMMISSARIAT A L'ENERGIE ATOMIQUE ET AUX ENERGIES …, priority 2013, published 2016).

What was measured:
[1] = in vivo; cited from earlier work
[2] = system: Streptococcus Pneumoniae; assay: Antibiogram: growth inhibition diameter around paper disks on Mueller-Hinton gelose; assay type: cell-based; details: 24 hours, FIG. 5
Experimental: Antibiograms have been performed on the same Streptococcus Pneumoniae strain, on a Mueller-Hinton gelose plate of 90 mm diameter (Biorad) as follows 40 μL of the prepared bacteria were added to 5 mL PBS and the mix is spread on the gelose plate. The remaining liquid mix is thrown and the plate was incubated at 37° C. during 15 minutes. Antibiotic paper disks of 6mm diameter (Dominique Dutscher) were then overwhelmed with 25 μL of each molecule/combination and placed on the Mueller-Hinton gelose for 24 hours. The inhibition diameter of bacterial cell growth around the disks was then measured. • Ceftriaxone (3,2-1,6-0,8-0,4-0,2-0,1-0,05 μg/mL) • Clonazepam (10-1-0,1 μg/mL) • Ceftriaxone (0,8-0,2-0,05 μg/mL)+Clonazepam (0,1 μg/mL)

[3] = system: Streptococcus Pneumoniae; assay: Survival of Swiss mice inoculated with Streptococcus Pneumoniae, treated with ceftriaxone plus adjuvant (bacterial meningitis model); assay type: in vivo
Experimental: 200 μL of suspended 1 Mc Farland bacteria (Streptococcus Pneumoniae, CRBIP, Institut Pasteur) were seeded overnight on blood Columbia plates (BioRad). 24 h later, bacteria were suspended in 5 mL phosphate buffer solution (PBS), and diluted to obtain 1 Mc Farland 600 nm optical density (3,2.10^7 bacteria/mL for this strain).
A mice model mimicking human bacterial meningitis (Gerber G., Acta Neuropathol. 2001) was implemented; Swiss male mice were used, with food and water ab libitum. Mice were anaesthetized using isoflurane.
The Swiss mice model has been chosen for the following reasons: • It is possible to induce bacterial meningitis in a direct and reproducible way (Gerber G., Acta Neuropathol. 2001). • The induced meningitis is similar to human meningitis (Gerber G., Acta Neuropathol. 2001). In particular, the inoculated mice present several […] symptoms/responses as infected humans. The data obtained with this model can therefore be transposed to human. • Efficiency of antibiotic agents for treating bacterial meningitis is currently studied in mice (Shapiro M. A. et al, J. Antimicrob. Chemother. 2000).
A 1/80 dilution of the prepared bacteria was then performed, so as to obtain 10^4 bacteria in 25 μL. 25 μL bacteria suspension were injected in the left brain hemisphere. 24 h, 48 h and 72 h later, mice were treated with 4 mg/day, 0.4 mg/day and 0.4 mg/day respectively of ceftriaxone. Clonazepam (or saline buffer, or water) was administrated 25 h post inoculation, by intraperitoneal (ip) or oral (po) route. Mortality was assessed several times per day, during 9 days.

[4] = system: pentylenetetrazol (PTZ) induced tonic seizures; assay: Anti-epileptic effect at low dose: time before pentylenetetrazol (PTZ) induced tonic seizure; assay type: in vivo, mice

Structure (SMILES)	half-life [1]	Growth inhibition diameter (potentiation of ceftriaxone in vitro) ([2]; ceftriaxone 0,8-0,2-0,05 μg/mL + clonazepam 0,1 μg/mL)	Growth inhibition diameter (intrinsic antibiotic activity) ([2]; clonazepam alone 10, 1, 0,1 μg/mL)	Kaplan-Meier survival rate ([3]; clonazepam 1 μg/kg ip + ceftriaxone, compared with 4 μg/kg, p=0,045 Logrank, FIG. 2)	Kaplan-Meier survival rate ([3]; clonazepam 2 μg/kg ip + ceftriaxone, compared with 4 μg/kg, p=0,045 Logrank, FIG. 2)	Kaplan-Meier survival rate ([3]; clonazepam 4 μg/kg ip 25 h after inoculation + ceftriaxone 4, 0.4, 0.4 mg/day at 24, 48, 72 h, vs ceftriaxone + NaCl, p=0,04 Logrank, FIG. 1)	Kaplan-Meier survival rate, oral vs intraperitoneal ([3]; clonazepam 4 μg/kg orally + ceftriaxone, compared with intraperitoneally administered combination, FIGS. 1, 3, 6)	Kaplan-Meier survival rate ([3]; clonazepam 20 μg/kg ip + ceftriaxone, compared with 4 μg/kg, FIG. 1)	Kaplan-Meier survival rate ([3]; clonazepam 100 μg/kg ip + ceftriaxone, compared with 4 μg/kg, FIG. 1)	Amount giving satisfactory potentiating effects in mice ([3]; mice, clonazepam with antibiotic)	Anti-epileptic effect (time before tonic seizures) ([4]; Streptococcus Pneumoniae inoculated mice, clonazepam doses inferior to 5 μg/kg, FIG. 4)	Anti-epileptic effect at the efficient adjuvant dose ([4]; clonazepam 4 μg/kg, concluded from the 1-125 μg/kg experiments)	Amount at which clonazepam has an anti-epileptic effect ([4]; healthy (non inoculated) mice, ip pretreatment 60 min before PTZ, FIG. 4)	Anti-epileptic effect (time before tonic seizures) ([4]; healthy mice, clonazepam 1 μg/kg ip, FIG. 4)	Anti-epileptic effect (time before tonic seizures) ([4]; healthy mice, clonazepam 5 μg/kg ip, FIG. 4)	Growth inhibition diameter ([2]; ceftriaxone alone 0,05-3,2 μg/mL)
O=C1CN=C(c2ccccc2Cl)c2cc([N+](=O)[O-])ccc2N1 [clonazepam, 5-(2-chlorphenyl)-1,3-dihydro-7-nitro-2H-1,4-benzodiazepine-2-one]	18 to 50 h	Nor is it able to potentiate the antibiotic activity of ceftriaxone in vitro	no intrinsic antibiotic activity	significantly less efficient	significantly less efficient	survival increase	lower	not as efficient	not as efficient	at least 2 μg/kg	no epileptic effect	no epileptic effect	≥ 25 µg/kg	no effect	no effect	
CO/N=C(\C(=O)N[C@@H]1C(=O)N2C(C(=O)O)=C(CSc3nc(=O)c(=O)[nH]n3C)CS[C@H]12)c1csc(N)n1 [ceftriaxone]																inhibit bacterial growth in a dose-dependent manner
